Here are results for 4 compounds from patent publication US7507739B2, “6-[(substituted)phenyl]triazolopyrimidines as anticancer agents” (Wyeth, priority 2003, dated 2009).

Test [1] relates to DLD1 Human Colon Carcinoma. Nature of the test: Human tumor xenograft test, DLD1. Format: in vivo. The note with it: DLD1, 20 mg/kg intravenously on days 1, 5, 9, and 13. How it is done: (§1) The ability of compounds of this invention to inhibit tumor growth in animals is studied in the athymic mouse xenograft standard pharmacological test. Female nu/nu mice in an outbred albino background are obtained from Charles River Laboratories (Wilmington, Mass.). Animals are injected subcutaneously on the flank with the desired tumor cell suspension. Several days later, mice with tumors of approximately 150 mm^3 are selected from those injected (staged) and randomly distributed into groups of 5-10. The day of staging is called day 0. Compounds of the invention, usually formulated in saline (exceptions are noted in tables), are administered to animals by intravenous injection or oral gavage on various schedules starting on day 0 or 1, as noted in the tables. The control group in each experiment is dosed with vehicle on the same schedule. Tumor size is measured every 3-7 days with calipers in two orthogonal dimensions, and tumor volume is calculated from the formula volume=[(length×width^2)/2].
(§2) Tumor/Control (T/C) is obtained by dividing the mean tumor volume of the treated group by the mean tumor volume of the control group on each measurement day. A treatment dose is defined as active if it produced a statistically significant T/C of 0.50 or less. A p value≦0.05, determined by one-side Student's t-test, is required for statistical significance. A treatment dose is defined as toxic if more than 10% of the animals died from a compound-related toxicity.
In general terms: Xenograft models place foreign cells or tissue in a host animal.

Test [2] concerns MAP-rich tubulin. In words: Tubulin polymerization test with MAP-rich tubulin. As to conditions: 0.3 μM compound, 20 min, fold enhancement over control. It counts as biochemical, bovine. How it is done:
Medium is RPMI-1640 with L-glutamine, supplemented with 10% heat-inactivated fetal calf serum, 100 units/ml penicillin, and 100 μg/ml streptomycin (Gibco, Grand Island, N.Y.). Microtubule-associated protein (MAP)-rich tubulin, containing about 70% tubulin and 30% MAPs (#ML113), and highly purified tubulin (>99% pure, #TL238), both from bovine brain, are obtained from Cytoskeleton, Inc., Denver, Colo. PEM buffer (80 mM piperazine-N,N′-bis[2-ethanesulfonic acid], pH 6.9, 1 mM ethylene glycol-bis(β-aminoethyl ether)-N,N,N′,N′-tetraacetic acid, 1 mM magnesium chloride) and guanosine 5′-triphosphate (GTP) are also obtained from Cytoskeleton. [3H]paclitaxel, specific activity 14.7 Ci/mmol, is purchased from Moravek Biochemicals (Brea, Calif.). [^3H]vinblastine, specific activity 9.60 Ci/mmol and MicroSpin G-50 columns are obtained from Amersham Biosciences (Piscataway, N.J.). […] Other reagents are obtained from Sigma (St. Louis, Mo.).
Two variations of this procedure are done, one using MAP-rich tubulin and one using pure tubulin.
MAP-rich tubulin is dissolved in ice-cold PEM buffer containing 1 mM GTP (GPEM buffer) at a concentration of 1.3 mg/mL. The solution is centrifuged at top speed in an Eppendorf model 5415C microcentrifuge (Brinkmann Instruments, Westbury, N.Y.) for 10 min at […] immediately before use. The tubulin solution is added to wells of a ½-area 96-well plate (Costar No. 3696, Corning, Inc., Corning, N.Y.) already containing the compounds of interest. Each compound is tested in duplicate at a final concentration of 0.3 μM in a volume of 110 μL per well. The final DMSO concentration in all wells is 0.3%. Control reactions, which received compound solvent only, are done in quadruplicate. The plate is put in a SpectraMax Plus plate reader (Molecular Devices Corp. Sunnyvale, Calif.) thermostated at 24° and the absorbance of each well at 340 nm, a measure of the appearance of turbidity due to tubulin polymer formation, is determined every minute for 60 minutes. The absorbance at time 0 for each well is subtracted from each of the subsequent absorbance readings for that well, and then the duplicates are averaged.
In this assay, control reactions with MAP-rich tubulin show an S-shaped absorbance profile characterized by three phases: first, a lag phase during which no change in absorbance occurs; second, a polymerization phase in which absorbance increases; and third, a plateau phase in which absorbance has reached a maximum and little or no further change occurs. Polymerization enhancers such as paclitaxel and docetaxel shorten or eliminate the lag phase, increase the rate of the polymerization phase, and often increase the height of the plateau. […] The compounds of this invention have a taxane-like effect on the polymerization reaction. This has been expressed quantitatively in Table 5 by dividing the mean A340 of each sample at 20 min by the mean A340 of the control at 20 min to give a fold enhancement over control. […] Examples of this invention have factors ranging up to 8.1, with the majority in the 5 to 6-fold range.

Test [3] concerns U87-MG Human Glioblastoma. Nature of the test: Human tumor xenograft test, U87-MG. It counts as in vivo, athymic mice. The protocol:
as §1, §2

In test [4] the test system is COLO 205 cells. In words: MTS cytotoxicity test with COLO 205 cells. It counts as cell-based, human. As to conditions: Homo sapiens, COLO 205, 72 h, 3 days. The procedure, abridged: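 COLO 205 human colon carcinoma cells, 1000 per well, exposed 3 days at 37° C to nine 2-fold dilutions, typical final top concentration 5 μM. MTS absorbance normalized to time-0 plate; IC50 is concentration giving colour yield midway between untreated and fully killed controls.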

Setting [5] is: U87-MG, 2.5 mg/kg PO, day 0, vehicle Klucel.
Where [6] appears, read: U87-MG, 5 mg/kg PO, day 0, vehicle Klucel.
The mark [7] stands for this setting: U87-MG, 10 mg/kg PO, day 0, vehicle Klucel.
Where [8] appears, read: U87-MG, 20 mg/kg PO, day 0, vehicle Klucel.
Where [9] appears, read: U87-MG, 30 mg/kg PO, day 0, vehicle Klucel.
[10] abbreviates: U87-MG, 20 mg/kg PO, days 1, 5, 9.

Marks after values point to notes of the source that are not given here.

The IC50 is the concentration that inhibits the measured activity by half. A high value points to lower potency. Consider `CNCCCOc1cc(F)c(-c2c(Cl)nc3ncnn3c2N[C@@H](C)C(F)(F)F)c(F)c1` [Example 2, 5-Chloro-6-{2,6-difluoro-4-[3-(methylamino)propoxy]phenyl}-N-[(1S)-2,2,2-trifluoro-1-methylethyl][1,2,4]triazolo[1,5-a]pyrimidin-7-amine], for which, in test [1], the “tumor growth inhibition (activity call)” value is “active”. Further, in test [2], the “A340 Compound/A340 Control” value came to 5.8. The “T/C on day 0” value is recorded as 1.00 in test [3] (setting [5]); 1.02 in test [3] (setting [6]); 1.00 in test [3] (setting [7]); 0.97 in test [3] (setting [8]); 0.95 in test [3] (setting [9]). Further, the “T/C on day 4” value in test [3] (setting [5]) is given as 0.84; in test [3] (setting [6]), 0.71*; in test [3] (setting [7]), 0.60**; in test [3] (setting [8]) it was 0.59**; in test [3] (setting [9]), 0.41**. Besides, the “T/C on day 8” value in test [3] (setting [5]) was 0.82; in test [3] (setting [6]), 0.75*; in test [3] (setting [7]), 0.51**; in test [3] (setting [8]), 0.38**; in test [3] (setting [9]) it was 0.24**. The “T/C on day 11” value in test [3] (setting [5]) is listed as 0.74*; in test [3] (setting [6]), 0.65**; in test [3] (setting [7]), 0.40**; in test [3] (setting [8]), 0.28**; in test [3] (setting [9]), 0.19**. Moreover, the “T/C on day 14” value in test [3] (setting [5]) is reported as 0.74*; in test [3] (setting [6]), 0.68**; in test [3] (setting [7]) it was 0.41**; in test [3] (setting [8]), 0.30**; in test [3] (setting [9]), 0.23**. In test [4], this compound yielded a concentration for half-maximal inhibition (IC50) of 32 nM.

In the case of `C[C@H](Nc1c(-c2c(F)cc(OCCCN3CCCC3)cc2F)c(Cl)nc2ncnn12)C(F)(F)F` [Example 9, 5-Chloro-6-[2,6-difluoro-4-(3-pyrrolidin-1-ylpropoxy)phenyl]-N-[(1S)-2,2,2-trifluoro-1-methylethyl][1,2,4]triazolo[1,5-a]pyrimidin-7-amine], the “A340 Compound/A340 Control” value in test [2] amounted to 5.8. In test [3] (setting [10]), the “T/C on day 0” value was found to be 1.04, the “T/C on day 3” value is 0.93, the “T/C on day 7” value was determined as 0.70 and the “T/C on day 10” value is listed as 0.50**. Further, in test [3] (setting [10]), the “T/C on day 13” value is recorded as 0.34** and the “T/C on day 17” value is 0.45**. Further, the “tumor growth inhibition (activity call)” value in test [3] (U-87 MG, oral dosing, 20 mg/kg) is listed as “active”. For the same compound, the IC50 in test [4] is 44 nM.

Turning to `C[C@H](Nc1c(-c2c(F)cc(OCCN3CCOCC3)cc2F)c(Cl)nc2ncnn12)C(F)(F)F` [Example 17, 5-Chloro-6-[2,6-difluoro-4-(2-morpholin-4-ylethoxy)phenyl]-N-[(1S)-2,2,2-trifluoro-1-methylethyl][1,2,4]triazolo[1,5-a]pyrimidin-7-amine], the “A340 Compound/A340 Control” value in test [2] turned out to be 4.8. Also, in test [4], half-maximal inhibition (IC50) required 245 nM.

Take `C[C@H](Nc1c(-c2c(F)cc(CCCCN(C)C)cc2F)c(Cl)nc2ncnn12)C(F)(F)F` [Example 26, 5-Chloro-6-{4-[4-(dimethylamino)butyl]-2,6-difluorophenyl}-N-[(1S)-2,2,2-trifluoro-1-methylethyl][1,2,4]triazolo[1,5-a]pyrimidin-7-amine]: the “A340 Compound/A340 Control” value in test [2] was found to be 4.6. In test [4], this compound registered an IC50 of 665 nM.
